# Source: patent US20240207256A1, “CERTAIN CHEMICAL ENTITIES, COMPOSITIONS, AND METHODS” (NeuPharma, Inc, priority 2021, published 2024)
# Key:
# Na+/K+-ATPase = Na+/K+-ATPase inhibition; format: biochemical; conditions: read-out: IC50 against Na+/K+-ATPase
# [1] = Elution of Compound A from loaded microspheres using the T-Apparatus; format: physicochemical; conditions: 50 mL PBS pH 7.4, 25° C.
# Protocol: The microspheres loaded with Compound A were eluted into 50 mL of phosphate buffer solution (PBS, pH 7.4) at 25° C. using a T-Apparatus (Lewis A L, Gonzalez M V, Lloyd A W, et al. DC bead: in vitro characterization of a drug-delivery device for transarterial chemoembolization. J Vasc Interv Radiol, 2006, 17: 335-42). The concentration of Compound A was determined using HPLC method.
# (§1) HPLC was performed using the following instrument and/or conditions: […]
# [2] = Compound A loading onto CalliSpheres microspheres (residual concentration by HPLC); format: physicochemical; conditions: for Concentration of Residual: 1 g microspheres 100-300 μm, 2 mg in 4 ml NaOAc/HOAc buffer 100 mM pH5.0; for Amount of Compound Loaded: onto 1 g microspheres
# Protocol: Microspheres (1 g, 100-300 μm, CalliSpheres® CallisynBiomedical, Inc.) were immersed into Compound A solution (2 mg in 4 ml of NaOAc/HOAc buffer (100 mM, pH5.0)) using a 10 mL disposable syringe. Residual compound concentration remaining in the depleted loading solution over time was determined by HPLC method.
# as §1
smiles,measurement,setting,value
"C[C@]12CC[C@H](OC(=O)N3CCNCC3)C[C@H]1CC[C@@H]1[C@@H]2CC[C@]2(C)[C@@H](c3ccc(=O)oc3)CC[C@]12O [Compound A, (3S,5R,8R,9S,10S,13R,14S,17R)-14-hydroxy-10,13-dimethyl-17-(2-oxo-2H-pyran-5-yl)hexadecahydro-1H-cyclopenta[α]phenanthren-3-yl piperazine-1-carboxylate]",IC50,Na+/K+-ATPase,~20 nM
same,Amount of Compound Eluted,[1]; time 0.083 h,0.63 mg
same,Concentration of Compound Eluted,[1]; time 0.083 h,0.013 mg/mL
same,Amount of Compound Eluted,[1]; time 0.5 h,0.67 mg
same,Concentration of Compound Eluted,[1]; time 0.5 h,0.014 mg/mL
same,Amount of Compound Eluted,[1]; time 0.75 h,0.70 mg
same,Concentration of Compound Eluted,[1]; time 0.75 h,0.014 mg/mL
same,Amount of Compound Eluted,[1]; time 1 h,0.70 mg
same,Concentration of Compound Eluted,[1]; time 1 h,0.014 mg/mL
same,Amount of Compound Eluted,[1]; time 2 h,0.76 mg
same,Concentration of Compound Eluted,[1]; time 2 h,0.015 mg/mL
same,Amount of Compound Eluted,[1]; time 4 h,0.94 mg
same,Concentration of Compound Eluted,[1]; time 4 h,0.019 mg/mL
same,Amount of Compound Eluted,[1]; time 6 h,1.10 mg
same,Concentration of Compound Eluted,[1]; time 6 h,0.022 mg/mL
same,Amount of Compound Eluted,[1]; time 24 h,1.21 mg
same,Concentration of Compound Eluted,[1]; time 24 h,0.024 mg/mL
same,Concentration of Residual,[2]; time 0 h,0.458 mg/mL
same,Amount of Compound Loaded,[2]; time 0 h,0 mg
same,Concentration of Residual,[2]; time 0.25 h,0.091 mg/mL
same,Amount of Compound Loaded,[2]; time 0.25 h,1.47 mg
same,Concentration of Residual,[2]; time 0.5 h,0.081 mg/mL
same,Amount of Compound Loaded,[2]; time 0.5 h,1.51 mg
same,Concentration of Residual,[2]; time 0.75 h,0.083 mg/mL
same,Amount of Compound Loaded,[2]; time 0.75 h,1.50 mg
same,Concentration of Residual,[2]; time 1 h,0.060 mg/mL
same,Amount of Compound Loaded,[2]; time 1 h,1.59 mg
